The subject of the assay is MV-4-11 cells. Briefly: Gene expression microarray analysis (Affymetrix PrimeView) and GSEA. It is filed as cell-based, human. To be noted: gene C12orf56; ACY-1035 1 mM; LIST F.

The values that follow come from article PMC5218480 (PLoS ONE, 2017).

As for `Nc1ccc(-c2cccs2)cc1NC(=O)c1ccc2c(c1)cc(C1CC1)n2CCN1CCOCC1` [ACY-1035], the “RFU, C12orf56 (ProbeSet 11735607_a_at)” value amounted to 71.19 RFU.
